According to patent US20240261224A1, “FORMULATION OF A PAN-JAK INHIBITOR” (KINASET THERAPEUTICS, INC., priority 2022, published 2024):
Several values for one entry are separate records, joined by “and”; a condition that tells them apart may be missing. Identical values can stand only once. Like-named read-outs stand apart in the source and are kept apart here.

Key:
[1] = Phase 1 clinical trial adverse events summary (Part 1 healthy volunteers); assay type: in vivo, human; conditions: for Severe/serious TEAE, n (%) / Subjects with TEAE n, (%) / TEAE leading to discontinuation: Part 1 healthy volunteers
Description: A status summary of the phase 1 clinical trial recruitment is shown below in Table 18. Capsules filled with blend 2a were used to achieve a 0.6 mg target dose of Compound I (0.2 mg capsules×3). Capsules filled with blend 4 were used to achieve 2.0 mg, 4.0 mg, 6.0 mg, 8.0 mg, and 12.0 mg target doses of Compound I (2.0 mg capsule×1; 4.0 mg capsule×1; 2.0 mg capsules×3; 4.0 mg capsules×2; and 4.0 mg capsules×3, respectively). Twice daily dosing (BID) was achieved by repeating the preceding regime. For example, an 8.0 mg BID dosing regime is achieved by administering two doses of 4.0 mg capsules×2.

[2] = test system: induced sputum eosinophil count; experiment: Phase 1 Part 3 induced sputum differential eosinophil count; assay type: in vivo, human; conditions: 4 mg BID
From the text: Day 10 sputum and serum inflammatory biomarkers are shown below in Table 29. Part 3 included an evaluation of sputum samples obtained by sputum induction in accordance with European Respiratory Society guidelines (Paggiaro, et al., Eur. Respir. J. 2002, 20: Suppl. 37, 3 s). Subjects were randomized into sputum-producer and non-sputum producer strata with a target minimum of approximately 50% of subjects able to provide an adequate sputum sample at screening. […] Differential cell counts (DCC) were performed on samples judged adequate per standard procedure and patients with evaluable baseline (screening) and Day 10 (or Day 11 if Day 10 was not adequate) post-treatment samples were considered for analyses that included individual and mean absolute and percentage differential eosinophil counts.
In the sputum producer stratum, 6 Compound I (active) subjects and 2 placebo subjects were identified as having adequate baseline and post-treatment sputum samples and the resultant data was used to determine change from baseline, mean change from baseline, and mean placebo-corrected change from baseline (Compound I vs placebo). […] At baseline, all subjects manifested a percent differential eosinophil count >3%, indicative of active eosinophilic inflammation. By Day 10, 66% ( 4/6) of active subjects had improved below 3% eosinophils, with 50% ( 3/6) below a more stringent threshold of 1.9% (Reddel et al., Am. J. Respir. Crit. Care Med. 2009, 180, 59).

[3] = Phase 1 Part 3 plasma pharmacokinetics (moderate to severe asthma); assay type: in vivo, human; conditions: 4 mg BID; for AUC(0-t) / AUC(0-inf) / AUC / Cmax: human, plasma, inhaled, 4 mg
Description: Part 3 involved the administration of a single dose regimen (4 mg BID), to subjects (17 active:6 placebo) with moderate to severe asthma treated with background ISC/LABA therapy, over a 10-day period. Blood samples were collected to enable the measurement of KN-002 concentrations in plasma. The resultant data was used to determine the pharmacokinetic parameters at Day 10 representing the Day on which the final dose was received.

NHP = experiment: 13-week inhalation toxicology study, NHP model; assay type: in vivo
Description: (§1) Lactose/MgSt-based formulations of Compound I were evaluated during a 13-week inhalation toxicology study in an NHP model, and the corresponding results are presented in Table 16 below. […] The NOAEL was assigned to the highest dose study (7.9 mg/kg/day).

[4] = 13-week inhalation toxicology study, NHP model; assay type: in vivo; conditions: in vivo, inhaled or intranasal, NHP; for AUC(0-t): monkey, read-out: AUC0-24
Description: as §1

serum eosinophil count = experiment: Phase 1 Part 3 serum (whole blood) differential eosinophil count; assay type: in vivo, human; conditions: 4 mg BID
Description: Whole blood hematology samples were collected prior to dosing in all patients at Day 1 (baseline) and on Day 10. Parameters including whole blood absolute and percent differential eosinophil count were determined and the resultant data was used to determine change from baseline, mean change from baseline, and mean placebo-corrected change from baseline (Compound I vs placebo).

[5] = Day 10, Mean of active subjects (n = 6)
[6] = Day 10, active (n = 6) vs placebo (n = 2)
[7] = Day 10, individual active subjects 13026, 13027, 13038, 13073, 13095, 13097 (c1-c6)
[8] = Mean of active subjects (n = 6)
[9] = individual active subjects 13026, 13027, 13038, 13073, 13095, 13097 (c1-c6)

## Cn1c(=O)n([C@H]2CCCN(C(=O)CC#N)C2)c2nc(-c3cnn4ccccc34)ccc21 [Compound I, (S)-3-(3-(1-methyl-2-oxo-5-(pyrazolo[1,5-a]pyridine-3-yl)-1H-imidazo[4,5-b]pyridine-3(2H)-yl)piperidin-1-yl)-3-oxopropanenitrile]
[1]; 0.2 mg (n = 6)
  Severe/serious TEAE, n (%): 0
  Subjects with TEAE n, (%): 0
  TEAE leading to discontinuation: 0
[1]; 0.6 mg (n = 7)
  Severe/serious TEAE, n (%): 0
  Subjects with TEAE n, (%): 2 (29%)
  TEAE leading to discontinuation: 1
[1]; 2.0 mg (n = 6)
  Severe/serious TEAE, n (%): 0
  Subjects with TEAE n, (%): 2 (33%)
  TEAE leading to discontinuation: 0
[1]; 4.0 mg (n = 6)
  Severe/serious TEAE, n (%): 0
  Subjects with TEAE n, (%): 0
  TEAE leading to discontinuation: 0
[1]; 6.0 mg (n = 6)
  Severe/serious TEAE, n (%): 0
  Subjects with TEAE n, (%): 0
  TEAE leading to discontinuation: 0
[1]; 12.0 mg (n = 6)
  Severe/serious TEAE, n (%): 0
  Subjects with TEAE n, (%): 0
  TEAE leading to discontinuation: 0
[1]; phase 1 clinical trial
  Changes in cardiovascular endpoints (ECG and vital signs): No treatment-related clinically relevant changes
  Severe or serious adverse events: No severe or serious adverse events were observed
[1]; phase 1 clinical trial, per investigator
  Changes in hematology, biochemistry or urinalysis parameters including those influenced by JAK inhibition: No clinically relevant changes
[2]; [5]
  Induced sputum % differential eosinophil count, % Change from Screening: −65%
  Induced sputum % differential eosinophil count, Change from Screening: −6.8%
  Induced sputum absolute differential eosinophil count, % Change from Screening: −79%
  Induced sputum absolute differential eosinophil count, Change from Screening: −0.15 10^6/g
[2]; [6]
  Induced sputum % differential eosinophil count, Mean placebo-corrected change: −21.3%
  Induced sputum absolute differential eosinophil count, Mean placebo-corrected change: −0.22 10^6/g
[2]; [7]
  Induced sputum % differential eosinophil count, % Change from Screening: −54% and −48% and −81% and −64% and −75% and −94%
  Induced sputum % differential eosinophil count, Change from Screening: −8.3% and −2.3% and −4.3% and −18.8% and −3.0% and −4.5%
  Induced sputum % differential eosinophil count, Reduced to normal level (<3%): No (2×) and Yes (4×)
  Induced sputum absolute differential eosinophil count, % Change from Screening: −70% and −75% (2×) and −89% and −88% and −100%
  Induced sputum absolute differential eosinophil count, Change from Screening: −0.16 10^6/g and −0.09 10^6/g and −0.08 10^6/g and −0.33 10^6/g and −0.07 10^6/g and −0.17 10^6/g
[2]; by Day 10 (3/6)
  Active subjects below more stringent threshold of 1.9% eosinophils (sputum): 50%
[2]; by Day 10 (4/6)
  Active subjects improved below 3% eosinophils (sputum percent differential count): 66%
[2]; [8]
  Induced sputum % differential eosinophil count, Day 10 level: 3.7%
  Induced sputum absolute differential eosinophil count, Day 10 level: 0.04 10^6/g
[2]; [9]
  Induced sputum % differential eosinophil count, Day 10 level: 7.0% and 2.5% and 1.0% (2×) and 10.5% and 0.3%
  Induced sputum absolute differential eosinophil count, Day 10 level: 0.07 10^6/g and 0.03 10^6/g and 0.01 10^6/g (2×) and 0.12 10^6/g and 0.001 10^6/g
[3]; Day 10
  AUC0-24 hours Max: 689,494 pg · h/ml
  AUC0-24 hours Min: 123,642 pg · h/ml
  AUC0-last non-zero Max: 886,864 pg · h/ml
  AUC0-last non-zero Min: 133,118 pg · h/ml
  AUC0-∞ Max: 887,512 pg · h/ml
  AUC0-∞ Min: 134,831 pg · h/ml
  AUCover dosing interval Max: 501,523 pg · h/ml
  AUCover dosing interval Min: 105,203 pg · h/ml
  Cmax Max: 63,800 pg/ml
  Cmax Min: 15,900 pg/ml
  Ctrough Geometric mean: 9,806 pg/ml
  Ctrough Max: 23,000 pg/ml
  Ctrough Mean: 11,153 pg/ml
  Ctrough Min: 2,490 pg/ml
[3]; Day 10, read-out: AUC0-24 hours Geometric mean
  AUC(0-t): 334 ng·h/mL
[3]; Day 10, read-out: AUC0-24 hours Mean
  AUC(0-t): 365 ng·h/mL
[3]; Day 10, read-out: AUC0-last non-zero Geometric mean
  AUC(0-t): 393 ng·h/mL
[3]; Day 10, read-out: AUC0-last non-zero Mean
  AUC(0-t): 438 ng·h/mL
[3]; Day 10, read-out: AUC0-∞ Geometric mean
  AUC(0-inf): 395 ng·h/mL
[3]; Day 10, read-out: AUC0-∞ Mean
  AUC(0-inf): 439 ng·h/mL
[3]; Day 10, read-out: AUCover dosing interval Geometric mean
  AUC: 257 ng·h/mL
[3]; Day 10, read-out: AUCover dosing interval Mean
  AUC: 278 ng·h/mL
[3]; Day 10, read-out: Cmax Geometric mean
  Cmax: 35 ng/mL
[3]; Day 10, read-out: Cmax Mean
  Cmax: 37.5 ng/mL
NHP; NHP, 13-week inhalation
  Treatment-related effects on clinical signs, bodyweight, food consumption, ophthalmoscopy, blood chemistry, urinalysis or macroscopic pathology: No treatment-related effects
NHP; target delivered dose 0.9 mg/kg/day (low dose)
  MMAD: 1.9 μm
NHP; target delivered dose 2.7 mg/kg/day (mid dose)
  MMAD: 2.3 μm
NHP; target delivered dose 8.0 mg/kg/day (high dose)
  MMAD: 2.7 μm
[4]; 0.9 mg/kg/day, inhaled 0.9 mg/kg/day, Day 1
  AUC(0-t): 203 ng·h/mL
[4]; 0.9 mg/kg/day, inhaled 0.9 mg/kg/day, Week 13
  AUC(0-t): 167 ng·h/mL
[4]; 2.7 mg/kg/day, inhaled 2.7 mg/kg/day, Day 1
  AUC(0-t): 408 ng·h/mL
[4]; 2.7 mg/kg/day, inhaled 2.7 mg/kg/day, Week 13
  AUC(0-t): 361 ng·h/mL
[4]; 8 mg/kg/day, inhaled 8.0 mg/kg/day, Day 1
  AUC(0-t): 903 ng·h/mL
[4]; 8 mg/kg/day, inhaled 8.0 mg/kg/day, Week 13
  AUC(0-t): 1160 ng·h/mL
[4]; non-human primate (NHP), 13-week inhalation, highest dose
  NOAEL at 13 weeks: 7.9 mg/kg/day
Serum eosinophil count; Day 10 (5/6)
  Active subjects with improvements (decreases) from baseline in whole blood eosinophil count: 83%
Serum eosinophil count; [5]
  Serum absolute differential eosinophil count, % Change from screening: −29%
  Serum absolute differential eosinophil count, Change from Day 1 pre-dose: −0.14 cells 10^9/L
Serum eosinophil count; [6]
  Serum absolute differential eosinophil count, Mean placebo-corrected change: −0.11 cells 10^9/L
Serum eosinophil count; [7]
  Serum absolute differential eosinophil count, % Change from screening: −45% and +54% and −43% and −4% and −32% and −74%
  Serum absolute differential eosinophil count, Change from Day 1 pre-dose: −0.30 cells 10^9/L and 0.13 cells 10^9/L and −0.13 cells 10^9/L and −0.03 cells 10^9/L and −0.14 cells 10^9/L and −0.34 cells 10^9/L
Serum eosinophil count; [8]
  Serum absolute differential eosinophil count, Day 10 level: 0.34 cells 10^9/L
Serum eosinophil count; [9]
  Serum absolute differential eosinophil count, Day 10 level: 0.36 cells 10^9/L and 0.37 cells 10^9/L and 0.17 cells 10^9/L and 0.74 cells 10^9/L and 0.30 cells 10^9/L and 0.12 cells 10^9/L
